Results from patent publication US7892777B2, “Methods for measuring whether a treatment affects RPTP-κ activity” (The Regents Of The University Of Michigan, priority 2007, dated 2011).

How the values were obtained:
EGFR = EGFR tyrosine phosphorylation (EGFR activation) in primary human keratinocytes; type: cell-based; conditions: human primary keratinocytes treated before UV irradiation (extracts: 16 hours, 50 mJ/cm2, 30 minutes post irradiation)
Description: With reference to FIG. 3, UV-induced EGFR tyrosine phosphorylation is shown to be ligand-independent and mediated by oxidative inhibition of RPTP-κ in primary human keratinocytes. Shown in panel A, primary human keratinocytes were treated with control IgG1 or EGFR antibody LA1 (1 μg/mL), which blocks ligand binding, as indicated. Cells were then treated with vehicle (CTRL), or EGF (10 ng/mL) for 10 min, or UV irradiated (50 mJ/cm^2) and harvested 15 min post irradiation. Whole cell lysates were subjected to Western analysis for total EGFR and tyrosine-phosphorylated EGFR. Levels of immunoreactive EGFR were quantified by chemifluorescent detection. Results are mean±S.E. of three independent experiments; *, p<0.05. […] Shown in panel B, human keratinocytes were UV-irradiated (50 mJ/cm^2), and whole cell lysates were prepared at the indicated times. RPTP-κ and β-actin (internal control) were detected by Western blot, and quantified by chemifluorescent detection. Results are mean±S.E. of three independent experiments; *, p<0.05. […] Shown in panel C, primary human keratinocytes were mock (No UV) or UV irradiated (50 mJ/cm^2), and whole cell lysates were prepared 5 min post-UV irradiation. RPTP-κ was immunoprecipitated, and phosphatase activity was determined using a tyrosine-phosphorylated EGFR peptide as substrate. Phosphatase activity was normalized to RPTP-κ protein content in the immunoprecipitates, which was quantified by Western analysis using chemifluorescent detection. Results are mean±S.E. of three independent experiments; *, p<0.05. […] Endogenous RPTP-κ was immunoprecipitated, and assayed for activity in buffer containing dithiothreitol to reduce oxidized RPTP-κ to restore enzymatic activity, using a tyrosine-phosphorylated EGFR peptide as substrate. Results are mean±S.E. of three independent experiments; *, p<0.05. Shown in panel E, RPTP-κ was immunoprecipitated from mock or UV-irradiated human keratinocytes, and the immunoprecipitates were treated with DTT to reduce oxidized RPTP-κ, as described above for panel C. Reduced RPTP-κ was irreversibly oxidized by pervanadate, and oxidized (OX-PTP) and total RPTP-κ were detected by Western blot, using specific antibodies. Results are mean±S.E. of three independent experiments; *, p<0.05.
With reference to FIG. 4, knockdown of RPTP-κ is shown to increase EGFR tyrosine phosphorylation in primary human keratinocytes. Shown in panel A, human keratinocytes were transfected with scrambled control (CTRL) or RPTP-κ siRNA. Two days post-transfection, whole cell lysates were prepared and analyzed for RPTP-κ and β-actin (internal control) proteins by Western blot. Results are mean±S.E. of three independent experiments; *, p<0.05. […] Shown in panel B, two days after transfection with control (CTRL) or RPTP-κ siRNA, keratinocytes were UV irradiated (50 mJ/cm2). Whole cell lysates were prepared 15 min post-UV irradiation and analyzed for total EGFR and tyrosine-phosphorylated EGFR Western blot. Results are mean±S.E. of three independent experiments; *, p<0.05. […] Shown in panel C, keratinocytes were transfected with control (CTRL) or RPTP-κ siRNA and treated with control IgG or neutralizing anti-EGFR antibody. Two days post-transfection, whole cell lysates were prepared and total and tyrosine-phosphorylated EGFR were quantified by ELISA. Results are mean±S.E. of three independent experiments; *, p<0.05.
With reference to FIG. 7, primary adult human keratinocytes were treated with Laminaria japonica extract (LJE) or Porphyra haitanensis extract (PHE) for 16 hours prior to exposure to ultraviolet (UV) irradiation (50 mJ/cm2). Cells were analyzed for phosphorylated epidermal growth factor receptor (EGFR) and total EGFR by Western analyses 30 minutes post irradiation. […]

[1] = molecular target: RPTP-κ glutathione S-transferase fusion protein (Homo sapiens, UniProt Q15262); conditions: 100 μM H2O2, room temperature 30 min; FIG. 1A
Chain of RPTP-κ glutathione S-transferase fusion protein (Q15262 775-1439 limits assumed): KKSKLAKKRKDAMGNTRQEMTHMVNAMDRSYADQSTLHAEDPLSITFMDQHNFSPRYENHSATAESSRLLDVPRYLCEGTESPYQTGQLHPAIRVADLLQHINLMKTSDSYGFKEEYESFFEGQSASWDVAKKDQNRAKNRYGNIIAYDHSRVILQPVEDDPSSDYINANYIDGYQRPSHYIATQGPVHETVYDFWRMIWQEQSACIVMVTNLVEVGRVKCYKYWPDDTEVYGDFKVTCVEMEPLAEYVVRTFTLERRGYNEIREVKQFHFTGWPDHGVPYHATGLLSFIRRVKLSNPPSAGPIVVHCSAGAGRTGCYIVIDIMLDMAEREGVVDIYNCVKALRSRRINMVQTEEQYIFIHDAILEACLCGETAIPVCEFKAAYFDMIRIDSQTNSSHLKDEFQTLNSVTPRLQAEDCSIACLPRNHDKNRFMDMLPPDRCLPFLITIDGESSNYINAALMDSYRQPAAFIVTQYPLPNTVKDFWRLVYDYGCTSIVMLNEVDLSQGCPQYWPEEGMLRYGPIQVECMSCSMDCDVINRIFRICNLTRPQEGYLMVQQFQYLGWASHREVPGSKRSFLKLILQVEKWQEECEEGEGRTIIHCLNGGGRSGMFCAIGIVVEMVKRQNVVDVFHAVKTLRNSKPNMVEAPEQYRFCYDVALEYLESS

purified EGFR = purified EGFR (Homo sapiens, UniProt P00533); conditions: EGFR with EGF and ATP/Mg2+, H2O2 at room temperature 30 min; FIG. 1B
Chain of purified EGFR (P00533 25-1210): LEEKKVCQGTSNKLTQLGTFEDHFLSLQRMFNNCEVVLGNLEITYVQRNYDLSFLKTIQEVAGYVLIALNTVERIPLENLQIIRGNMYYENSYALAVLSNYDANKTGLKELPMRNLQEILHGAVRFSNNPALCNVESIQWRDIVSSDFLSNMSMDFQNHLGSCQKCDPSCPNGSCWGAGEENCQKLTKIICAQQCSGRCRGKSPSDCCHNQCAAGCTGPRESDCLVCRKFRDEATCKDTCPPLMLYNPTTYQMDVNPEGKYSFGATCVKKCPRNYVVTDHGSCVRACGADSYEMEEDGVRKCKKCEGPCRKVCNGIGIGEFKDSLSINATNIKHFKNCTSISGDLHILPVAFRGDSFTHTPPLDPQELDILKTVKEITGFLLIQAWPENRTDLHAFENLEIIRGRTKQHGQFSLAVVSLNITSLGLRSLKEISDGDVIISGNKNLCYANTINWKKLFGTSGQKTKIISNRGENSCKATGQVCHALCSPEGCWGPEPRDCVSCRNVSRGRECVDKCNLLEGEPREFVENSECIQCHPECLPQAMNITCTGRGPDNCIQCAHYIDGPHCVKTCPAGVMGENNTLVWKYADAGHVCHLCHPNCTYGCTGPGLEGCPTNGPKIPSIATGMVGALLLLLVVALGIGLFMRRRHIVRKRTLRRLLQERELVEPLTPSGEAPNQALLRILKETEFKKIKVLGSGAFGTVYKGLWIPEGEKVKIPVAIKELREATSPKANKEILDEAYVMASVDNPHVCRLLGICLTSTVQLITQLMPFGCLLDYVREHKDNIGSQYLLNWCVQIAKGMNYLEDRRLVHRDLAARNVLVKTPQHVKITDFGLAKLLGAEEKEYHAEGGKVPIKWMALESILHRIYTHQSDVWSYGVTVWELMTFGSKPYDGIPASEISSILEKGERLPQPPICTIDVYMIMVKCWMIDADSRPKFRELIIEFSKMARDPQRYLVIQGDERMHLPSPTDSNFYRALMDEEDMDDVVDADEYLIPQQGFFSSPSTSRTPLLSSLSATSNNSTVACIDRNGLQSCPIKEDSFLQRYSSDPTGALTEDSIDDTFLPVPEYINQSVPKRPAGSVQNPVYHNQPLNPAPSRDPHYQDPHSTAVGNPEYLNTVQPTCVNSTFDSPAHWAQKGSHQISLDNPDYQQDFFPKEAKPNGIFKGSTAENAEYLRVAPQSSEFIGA

RPTP-κ and EGFR = RPTP-κ and EGFR (Homo sapiens, UniProt Q15262); conditions: purified RPTP-κ and EGFR together, H2O2 100 μM, room temperature 30 min; FIG. 1C
Chain of RPTP-κ and EGFR (Q15262 775-1439 limits assumed): as the sequence (Q15262 775-1439 limits assumed) above

Row | Compound | UV irradiation-induced EGFR activation (EGFR) | also measured
1 | O=C(/C=C/c1ccc(O)c(O)c1)OCCc1ccccc1 [CAPE, Caffeic acid phenethyl ester] | no effect | 
2 | OO [H2O2, hydrogen peroxide] |  | loss of RPTP-κ activity [1]: 80%; effect on tyrosine phosphorylation of purified EGFR (purified EGFR): no direct effect; EGFR tyrosine phosphorylation (RPTP-κ and EGFR): increased to the level observed in the absence of RPTP-κ
3 | CC1=NN(c2ccccc2)C(=O)C1 [MCI-186, 3-Methyl-1-phenyl-2-pyrazolin-5-one] | no effect | 
4 | COC1=C(OC)C(=O)C(CCCCCCCCCC[P+](c2ccccc2)(c2ccccc2)c2ccccc2)=C(C)C1=O [Mito Q10] | no effect | 
5 | CC(=O)N[C@@H](CS)C(=O)O [N-Acetyl cysteine] | no effect | 
6 | Oc1ccc(C=Cc2cc(O)cc(O)c2)cc1 [Resveratrol] | no effect | UV irradiation-induced EGFR activation (EGFR; listed as resveratrol): did not exhibit activity
7 | CC1=C(C)C(=O)C(CC[C@](C)(O)CCC[C@H](C)CCC[C@H](C)CCCC(C)C)=C(C)C1=O [Tocopherylquinone, d-alpha] | no effect | 
